According to article PMC5923142, “Selection and Characterization of Rupintrivir-Resistant Norwalk Virus Replicon Cells In Vitro” (Antimicrobial Agents and Chemotherapy, 2018):
Entries after “also recorded” stand apart in the source; their conditions may differ.

Tests used:
[1] = target: T1, MNV WT protease (polyprotein) (Norovirus, UniProt Q80J95); assay: In vitro translation, MNV polyprotein processing, WT protease; format: biochemical, murine norovirus; settings: 80 μM, rabbit reticulocyte lysate
T1 construct: in vitro-transcribed MNV full-length capped RNA containing either the WT or mutant proteases; made in house; host or cells: rabbit reticulocyte lysate (Flexi system, Promega), in vitro translation
Protocol: (§1) FIG 4 Impact of rupintrivir resistance-conferring mutations on MNV polyprotein processing in vitro. In vitro translation reactions were programmed with equal quantities of in vitro-transcribed MNV full-length capped RNA containing either the WT or mutant proteases in the presence and absence of 80 μM rupintrivir. The [^35S]methionine-labeled products were subsequently analyzed by SDS-PAGE and phosphorimaging analysis. The percentage of fully processed NS3, determined on the basis of the expected molecular mass of the proteins, was calculated and expressed relative to the total amount of viral protein produced.
(§2) In vitro translation reactions were performed using a Flexi rabbit reticulocyte lysate system (Promega). The reaction mixtures were prepared according to the manufacturer's instructions as described for capped mRNAs and programmed with 1 μg of RNA per 25-μl reaction mixture. The reaction mixtures were incubated at 30°C for 90 min prior to the addition of an equal volume of SDS-PAGE sample buffer. Samples were subsequently resolved on a 12.5% SDS-polyacrylamide gel before exposure to a phosphorimager screen.

GII mutant proteases = assay: Cell-based FRET assay, GII mutant proteases (A105V, I109V, A105V/I109V); set-up: species or system norovirus GII.4 (DQ658413); settings: A105V/I109V vs GII WT, HEK293T cells
Excerpt: (§3) The generation of plasmids expressing norovirus protease from GI.1 (M87661), GII.4 (DQ658413), or GV (DQ285629) norovirus and FRET assay constructs has been described previously ([18]). The plasmids carrying GI, GII, and GV proteases with the A105V, I109V, or A105V/I109V mutation were generated from the wild-type (WT) protease constructs described above by the QuikChange site-directed mutagenesis method. Mutant MNV genomes for reverse genetics were generated by two-step PCR mutagenesis of the WT MNV genome (pT7 MNV 3RZ) construct as described previously ([27]). The primers used for generation of the plasmids are listed in Tables S1 and S2 in the supplemental material.
(§4) The YFP/CFP ratio was used to determine FRET efficiency, as described previously ([18], [40]). Briefly, HEK293T cells were plated into black 96-well cell culture microplates (Greiner Bio-One) at a density of 5 × 10^4 cells/well in 100 μl of DMEM containing 10% fetal bovine serum with or without various concentrations of rupintrivir and then incubated for 4 h in a CO2 incubator at 37°C. […] The plates were then analyzed on a SpectraMax i3 instrument in fluorescence mode, with excitation set at 434 nm and the reading emissions set at 477 nm (CFP) and 527 nm (YFP). The background fluorescence from wells transfected with pcDNA3.1 was determined and subtracted. […]

[2] = target: T2, MNV I109V protease (polyprotein) (Norovirus, UniProt Q80J95, I1103V); assay: In vitro translation, MNV polyprotein processing, I109V protease; format: biochemical, murine norovirus; settings: 80 μM, rabbit reticulocyte lysate
T2 construct: in vitro-transcribed MNV full-length capped RNA containing either the WT or mutant proteases; made in house; host or cells: rabbit reticulocyte lysate (Flexi system, Promega), in vitro translation
Protocol: as §1, §2

GI A105V mutant protease = target: T3, GI A105V mutant protease (Norovirus, UniProt Q83883, A1205V); assay: Cell-based FRET assay, GI A105V protease; set-up: species or system norovirus GI.1 (M87661)
T3 construct: plasmids expressing norovirus protease from GI.1 (M87661); expressed in transfected cells; host or cells: HEK293T
Excerpt: as §3, §4

GI I109V mutant protease = target: T4, GI I109V mutant protease (Norovirus, UniProt Q83883, I1209V); assay: Cell-based FRET assay, GI I109V protease; set-up: species or system norovirus GI.1 (M87661)
T4 construct: plasmids expressing norovirus protease from GI.1 (M87661); expressed in transfected cells; host or cells: HEK293T
Excerpt: as §3, §4

[3] = HEK293T cells, GI NS1/2-NS3 FRET substrate

T4 sequence (Q83883 1101-1281 I1209V): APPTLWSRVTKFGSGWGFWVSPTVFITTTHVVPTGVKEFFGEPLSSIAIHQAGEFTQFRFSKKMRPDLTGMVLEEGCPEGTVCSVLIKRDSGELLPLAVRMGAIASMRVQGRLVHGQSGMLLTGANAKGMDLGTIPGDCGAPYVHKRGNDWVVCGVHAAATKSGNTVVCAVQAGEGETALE
T3 sequence (Q83883 1101-1281 A1205V): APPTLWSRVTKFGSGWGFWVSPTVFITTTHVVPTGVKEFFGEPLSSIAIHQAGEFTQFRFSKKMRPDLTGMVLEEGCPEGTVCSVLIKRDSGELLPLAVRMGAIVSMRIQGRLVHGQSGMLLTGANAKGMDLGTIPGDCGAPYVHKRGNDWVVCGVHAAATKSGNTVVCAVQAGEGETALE

Compound: CCOC(=O)/C=C/[C@H](C[C@@H]1CCNC1=O)NC(=O)[C@@H](CC(=O)[C@@H](NC(=O)c1cc(C)on1)C(C)C)Cc1ccc(F)cc1 [rupintrivir, Rupintrivir]
- polyprotein processing (mature NS3) [1]: prevented the cleavage of the polyprotein
- effect of substitutions on the IC50 (GII mutant proteases): no measurable effect; also recorded: no significant differences
- polyprotein processing (mature NS3) [2]: still able to produce mature NS3
- IC50 (GI A105V mutant protease; [3]): 4.2 ± 1.1 µM
- fold increase in IC50 (GI A105V mutant protease; vs GI WT protease): 3.2 fold
- IC50 (GI I109V mutant protease; [3]): 4 ± 0.4 µM
- fold increase in IC50 (GI I109V mutant protease; vs GI WT protease): 3.1 fold
